Several values for one entry are separate records, joined by “and”; a condition that tells them apart may be missing. Equal values may be shown once. Inconclusive results and toxic doses are left out.
Test system: P388 leukemia ip, CD2F1 mice, survival T/C
Assay: NCI In Vivo Anticancer Drug Screen. Data for tumor model P388 Leukemia (intraperitoneal) in CD2F1 (CDF1) mice
Conditions: endpoint: median survival time, higher = longer survival
In short: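 Mice carrying the transplanted tumor received test compound or vehicle. Survival was recorded in each group, and the value is the treated-group measurement divided by that of the vehicle-treated control group.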

[1] = dose: 25.0 mg/kg/injection, schedule: Q01DX009 (ip), vehicle: saline with Tween-80
[2] = dose: 50.0 mg/kg/injection, schedule: Q01DX009 (ip), vehicle: saline with Tween-80

COc1cc(NCc2ccc3nc(N)nc(N)c3c2C)cc(OC)c1OC (tested in a mixture with another compound)
T/C (dose: 2.6 mg/kg/injection, schedule: Q03HX024 (ip), vehicle: water): 166 % of control
T/C (dose: 5.0 mg/kg/injection, schedule: Q03HX024 (ip), vehicle: water): 182 % of control
T/C (dose: 5.2 mg/kg/injection, schedule: Q03HX024 (ip), vehicle: water): 192 % of control
T/C (dose: 6.25 mg/kg/injection, schedule: Q03HX008 (sc), vehicle: water): 114 % of control
T/C (dose: 6.9 mg/kg/injection, schedule: Q01DX009 (oral), vehicle: water): 119 % of control
T/C (dose: 10.0 mg/kg/injection, schedule: Q03HX024 (ip), vehicle: water): 201 % of control
T/C (dose: 10.4 mg/kg/injection, schedule: Q03HX024 (ip), vehicle: water): 217 % of control
T/C (dose: 12.5 mg/kg/injection, schedule: Q03HX008 (sc), vehicle: water): 118 % of control
T/C (dose: 13.8 mg/kg/injection, schedule: Q01DX009 (ip), vehicle: water): 175 % of control
T/C (dose: 13.8 mg/kg/injection, schedule: Q01DX009 (oral), vehicle: water): 156 % of control
T/C (dose: 20.0 mg/kg/injection, schedule: Q03HX024 (ip), vehicle: water): 230 % of control
T/C (dose: 20.8 mg/kg/injection, schedule: Q03HX024 (ip), vehicle: water): 233 % of control
T/C (dose: 25.0 mg/kg/injection, schedule: Q01DX005 (ip), vehicle: water): 153 % of control and 154 % of control
T/C (dose: 25.0 mg/kg/injection, schedule: Q01DX005 (sc), vehicle: water): 118 % of control
T/C (dose: 25.0 mg/kg/injection, schedule: Q03HX008 (sc), vehicle: water): 123 % of control
T/C (dose: 27.7 mg/kg/injection, schedule: Q01DX009 (ip), vehicle: water): 185 % of control
T/C (dose: 27.7 mg/kg/injection, schedule: Q01DX009 (oral), vehicle: water): 163 % of control
T/C (dose: 40.0 mg/kg/injection, schedule: Q03HX024 (ip), vehicle: water): 223 % of control
T/C (dose: 41.6 mg/kg/injection, schedule: Q03HX024 (ip), vehicle: water): 103 % of control
T/C (dose: 50.0 mg/kg/injection, schedule: Q01DX005 (ip), vehicle: water): 150 % of control and 160 % of control
T/C (dose: 50.0 mg/kg/injection, schedule: Q01DX005 (iv), vehicle: water): 166 % of control
T/C (dose: 55.5 mg/kg/injection, schedule: Q01DX009 (ip), vehicle: water): 208 % of control
T/C (dose: 55.5 mg/kg/injection, schedule: Q01DX009 (oral), vehicle: water): 211 % of control
T/C (dose: 62.5 mg/kg/injection, schedule: Q01DX001 (ip), vehicle: water): 109 % of control
T/C (dose: 62.5 mg/kg/injection, schedule: Q01DX001 (iv), vehicle: water): 117 % of control
T/C (dose: 75.0 mg/kg/injection, schedule: Q03HX008 (sc), vehicle: water): 163 % of control
T/C (dose: 100.0 mg/kg/injection, schedule: Q01DX005 (ip), vehicle: water): 155 % of control and 173 % of control
T/C (dose: 100.0 mg/kg/injection, schedule: Q01DX005 (sc), vehicle: water): 163 % of control
T/C (dose: 111.1 mg/kg/injection, schedule: Q01DX009 (oral), vehicle: water): 98 % of control
T/C (dose: 125.0 mg/kg/injection, schedule: Q01DX001 (ip), vehicle: water): 115 % of control
T/C (dose: 200.0 mg/kg/injection, schedule: Q01DX005 (sc), vehicle: water): 95 % of control
T/C (dose: 50.0 micrograms per hour, schedule: Q#X X024 (sc), vehicle: water): 120 % of control
T/C (dose: 50.0 micrograms per hour, schedule: Q#X X048 (sc), vehicle: water): 123 % of control
T/C (dose: 50.0 micrograms per hour, schedule: Q#X X072 (sc), vehicle: water): 163 % of control
T/C (dose: 70.0 micrograms per hour, schedule: Q#X X006 (iv), vehicle: water): 112 % of control
T/C (dose: 85.0 micrograms per hour, schedule: Q#X X006 (iv), vehicle: water): 121 % of control
T/C (dose: 100.0 micrograms per hour, schedule: Q#X X024 (sc), vehicle: water): 118 % of control
T/C (dose: 100.0 micrograms per hour, schedule: Q#X X120 (sc), vehicle: water): 112 % of control
T/C (dose: 200.0 micrograms per hour, schedule: Q#X X072 (sc), vehicle: water): 181 % of control
T/C (dose: 200.0 micrograms per hour, schedule: Q#X X120 (sc), vehicle: water): 94 % of control

CN(C)C(=O)Nc1cccc2c(NC(=O)N(C)C)cccc12
T/C (dose: 50.0 mg/kg/injection, schedule: Q01DX009 (ip), vehicle: Klucel (hydroxypropylcellulose) (HPC)): 100 % of control and 103 % of control
T/C (dose: 100.0 mg/kg/injection, schedule: Q01DX009 (ip), vehicle: Klucel (hydroxypropylcellulose) (HPC)): 100 % of control (2×) and 93 % of control
T/C (dose: 200.0 mg/kg/injection, schedule: Q01DX009 (ip), vehicle: Klucel (hydroxypropylcellulose) (HPC)): 99 % of control and 87 % of control
T/C (dose: 400.0 mg/kg/injection, schedule: Q01DX009 (ip), vehicle: Klucel (hydroxypropylcellulose) (HPC)): 91 % of control

CCCCC(=O)CCCCCCCCC(=O)OCC
T/C (dose: 100.0 mg/kg/injection, schedule: Q04DX003 (ip), vehicle: Klucel (hydroxypropylcellulose) (HPC)): 102 % of control
T/C (dose: 200.0 mg/kg/injection, schedule: Q04DX003 (ip), vehicle: Klucel (hydroxypropylcellulose) (HPC)): 103 % of control
T/C (dose: 400.0 mg/kg/injection, schedule: Q04DX003 (ip), vehicle: Klucel (hydroxypropylcellulose) (HPC)): 95 % of control

Cc1ccc(NS(=O)(=O)c2ccccc2)nc1
T/C [1]: 110 % of control
T/C [2]: 100 % of control
T/C (dose: 100.0 mg/kg/injection, schedule: Q01DX009 (ip), vehicle: saline with Tween-80): 100 % of control
T/C (dose: 200.0 mg/kg/injection, schedule: Q01DX009 (ip), vehicle: saline with Tween-80): 95 % of control
T/C (dose: 400.0 mg/kg/injection, schedule: Q01DX009 (ip), vehicle: saline with Tween-80): 105 % of control

Cc1[c-]onc1C.Cc1[c-]onc1C.[Ag].[Ag].[NH-]S(=O)(=O)c1ccc(N=Nc2cc(N=Nc3ccc(S([NH-])(=O)=O)cc3)c3c(NC(=O)C(Cl)Cl)cccc3c2OC(=O)C(Cl)Cl)cc1
T/C (dose: 3.13 mg/kg/injection, schedule: Q01DX009 (ip), vehicle: saline with Tween-80): 91 % of control
T/C (dose: 6.25 mg/kg/injection, schedule: Q01DX009 (ip), vehicle: saline with Tween-80): 89 % of control
T/C [1]: 89 % of control
T/C [2]: 99 % of control

From PubChem BioAssay AID330 (DTP/NCI, 2004)
